What all share (test): Post-emergence efficacy of compounds of Formula (I) (B1), glasshouse
What all share (format): in vivo

The test system of assay [1] is Chenopodium album (CHEAL). The conditions noted are these: Application Rate 500 g/Ha, evaluated after 13 days; for pest or weed control at 500 g/ha: Chenopodium album, post-emergence, 312 h, read-out: Control of CHEAL after post-emergence application (100=total damage to plant; 0=no damage to plant). The protocol: (§1) Seeds of a variety of test species were sown in standard Iaom-based soil in pots:— Ipomoea hederacea (IPOHE), Euphorbia heterophylla (EPHHL), Chenopodium album (CHEAL), Amaranthus palmeri (AMAPA), Lolium perenne (LOLPE), Digitaria sanguinalis (DIGSA), Eleusine indica (ELEIN), Echinochloa crus-galli (ECHCG), Setaria faberi (SETFA). After cultivation for 14 days (post-emergence) under controlled conditions in a glasshouse (at 24/16° C., day/night; 14 hours light; 65% humidity), the plants were sprayed with an aqueous spray solution derived from the dissolution of the technical active ingredient Formula (I) in a small amount of acetone and a special solvent and emulsifier mixture referred to as IF50 (11.12% Emulsogen EL360 TM+44.44% N-methylpyrrolidone+44.44% Dowanol DPM glycol ether), to create a 50 g/I solution which was then diluted to required concentration using 0.25% or 1% Empicol ESC70 (Sodium lauryl ether sulphate)+1% ammonium sulphate as diluent. The delivery of the aqueous spray solution was via a laboratory track sprayer which delivered the aqueous spray composition at a rate of 200 litres per hectare, using a flat fan nozzle (Teejet 11002VS) and an application volume of 200 litre/ha (at 2 bar).
(§2) The test plants were then grown in a glasshouse under controlled conditions (at 24/16° C., day/night; 14 hours light; 65% humidity) and watered twice daily. After 13 days the test was evaluated (100=total damage to plant; 0=no damage to plant).

The next assay relates to Eleusine indica (ELEIN). The conditions noted are these: Application Rate 500 g/Ha, evaluated after 13 days; for pest or weed control at 500 g/ha: Eleusine indica, post-emergence, 312 h, read-out: Control of ELEIN after post-emergence application (100=total damage to plant; 0=no damage to plant). The protocol: as §1, §2
In assay [2] the test system is Ipomoea hederacea (IPOHE). To be noted: Application Rate 500 g/Ha, evaluated after 13 days; for pest or weed control at 500 g/ha: Ipomoea hederacea, post-emergence, 312 h, read-out: Control of IPOHE after post-emergence application (100=total damage to plant; 0=no damage to plant). Here is the method:
as §1, §2

The subject of assay [3] is Echinochloa crus-galli (ECHCG). The conditions noted are these: Application Rate 500 g/Ha, evaluated after 13 days; for pest or weed control at 500 g/ha: Echinochloa crus-galli, post-emergence, 312 h, read-out: Control of ECHCG after post-emergence application (100=total damage to plant; 0=no damage to plant). The protocol:
as §1, §2

For assay [4], the system named is Amaranthus palmeri (AMAPA). The conditions noted are these: Application Rate 500 g/Ha, evaluated after 13 days; for pest or weed control at 500 g/ha: Amaranthus palmeri, post-emergence, 312 h, read-out: Control of AMAPA after post-emergence application (100=total damage to plant; 0=no damage to plant). Here is the method:
as §1, §2

A further assay concerns Lolium perenne (LOLPE). The conditions noted are these: Application Rate 500 g/Ha, evaluated after 13 days; for pest or weed control at 500 g/ha: Lolium perenne, post-emergence, 312 h, read-out: Control of LOLPE after post-emergence application (100=total damage to plant; 0=no damage to plant). The protocol:
as §1, §2

Assay [5] concerns Digitaria sanguinalis (DIGSA). The conditions noted are these: Application Rate 500 g/Ha, evaluated after 13 days; for pest or weed control at 500 g/ha: Digitaria sanguinalis, post-emergence, 312 h, read-out: Control of DIGSA after post-emergence application (100=total damage to plant; 0=no damage to plant). The protocol: as §1, §2
For a further assay, the system named is Setaria faberi (SETFA). The conditions noted are these: Application Rate 500 g/Ha, evaluated after 13 days; for pest or weed control at 500 g/ha: Setaria faberi, post-emergence, 312 h, read-out: Control of SETFA after post-emergence application (100=total damage to plant; 0=no damage to plant). Here is the method: as §1, §2
The subject of assay [6] is Euphorbia heterophylla (EPHHL). The conditions noted are these: Application Rate 500 g/Ha, evaluated after 13 days; for pest or weed control at 500 g/ha: Euphorbia heterophylla, post-emergence, 312 h, read-out: Control of EPHHL after post-emergence application (100=total damage to plant; 0=no damage to plant). The protocol: as §1, §2

Turning to `Cl.O=C(O)CC[n+]1ccc(-c2cccnn2)cn1.[Cl-]` [Compound 1.034, 3-(4-pyridazin-1-ium-3-ylpyridazin-1-ium-1-yl)propanoic acid dichloride], the pest or weed control at 500 g/ha (in assay [1]; in assay [3]; in assay [4]; in [5]; in the assay on Setaria faberi (SETFA); in assay [6]) was 100% each time. In addition, the “Control of ELEIN after post-emergence application (100=total damage to plant; 0=no damage to plant)” value in the assay with Eleusine indica (ELEIN) is 100. Besides, in [2], the “Control of IPOHE after post-emergence application (100=total damage to plant; 0=no damage to plant)” value was 60. The “Control of LOLPE after post-emergence application (100=total damage to plant; 0=no damage to plant)” value in the assay on Lolium perenne (LOLPE) was 90.
For `O=C(CC[n+]1ccc(-c2ncccn2)cn1)OCc1ccccc1` [Compound 1.018], the pest or weed control at 500 g/ha in assay [1] was 90%; with Eleusine indica (ELEIN) it was 100%; in assay [2], 30%; in assay [3] it was 80%; in [4], 90%; in the assay on Lolium perenne (LOLPE), 40%. Besides, the pest or weed control at 500 g/ha (in assay [5]; in the assay with Setaria faberi (SETFA); in assay [6]) was 100% in each case.
For the molecule `O=C(O)CC[n+]1ccc(-c2ncccn2)cn1.[Cl-]` [Compound 1.010, 3-(4-pyrimidin-2-ylpyridazin-1-ium-1-yl)propanoic acid chloride], the pest or weed control at 500 g/ha (in [1]; in the assay on Eleusine indica (ELEIN); in assay [3]; in [5]; with Setaria faberi (SETFA); in assay [6]) was 100% each time. Also, the “Control of IPOHE after post-emergence application (100=total damage to plant; 0=no damage to plant)” value in assay [2] is on record as 40. Moreover, the “Control of LOLPE after post-emergence application (100=total damage to plant; 0=no damage to plant)” value in the assay with Lolium perenne (LOLPE) is given as 90.
`CC(C)(CC(=O)O)[n+]1ccc(-c2ncccn2)cn1` [Compound 1.025, 3-methyl-3-(4-pyrimidin-2-ylpyridazin-1-ium-1-yl)butanoic acid 2,2,2-trifluoroacetate]: the pest or weed control at 500 g/ha in assay [1] worked out at 70%; with Eleusine indica (ELEIN), 100%; in assay [2], 50%; in [3], 100%; in [4], 100%; with Lolium perenne (LOLPE), 30%. Further, the pest or weed control at 500 g/ha was 90% in [5], 100% in the assay with Setaria faberi (SETFA) and 40% in [6].
For the molecule `CC(C[n+]1ccc(-c2ncccn2)cn1)S(=O)(=O)[O-]` (stereo not drawn) [Compound 1.026, 1-(4-pyrimidin-2-ylpyridazin-1-ium-1-yl)propane-2-sulfonate], the pest or weed control at 500 g/ha in [1] worked out at 80%; with Eleusine indica (ELEIN), 100%; in [2], 70%; in [3], 80%; in assay [4], 100%; in the assay with Lolium perenne (LOLPE) it was 80%. Further, the values for the pest or weed control at 500 g/ha (in assay [5]; in the assay on Setaria faberi (SETFA); in [6]) were 100%, 100% and 90%, respectively.
In the case of `Nc1ccnc(-c2cc[n+](CCS(=O)(=O)O)nc2)n1` [Compound 1.008], the pest or weed control at 500 g/ha in assay [1] was found to be 100%; in the assay on Eleusine indica (ELEIN), 100%; in assay [2], 40%; in assay [3] it was 100%; in the assay with Lolium perenne (LOLPE), 60%; in [5], 100%. Besides, the pest or weed control at 500 g/ha with Setaria faberi (SETFA) is 100%; in [6], 80%.
As to `Cc1ccnc(-c2cc[n+](CCC(=O)[O-])nc2)n1` [Compound 1.015], the pest or weed control at 500 g/ha worked out at 100% in assay [1]; 100% in the assay on Eleusine indica (ELEIN); 30% in [2]; 100% in assay [3]; 80% in the assay with Lolium perenne (LOLPE); 100% in assay [5]. Moreover, the values for the pest or weed control at 500 g/ha (in the assay with Setaria faberi (SETFA); in assay [6]) were 100% and 80%, respectively.
`O=C(O)CC[n+]1ccc(-c2ncccn2)cn1.O=C([O-])C(F)(F)F` [Compound 1.023, 3-(4-pyrimidin-2-ylpyridazin-1-ium-1-yl)propanoic acid 2,2,2-trifluoroacetate]: the “Control of CHEAL after post-emergence application (100=total damage to plant; 0=no damage to plant)” value in assay [1] is listed as 80. Moreover, in the assay on Eleusine indica (ELEIN), the “Control of ELEIN after post-emergence application (100=total damage to plant; 0=no damage to plant)” value was 100. Moreover, the “Control of IPOHE after post-emergence application (100=total damage to plant; 0=no damage to plant)” value in assay [2] is reported as 30. For the same molecule, in assay [3], the “Control of ECHCG after post-emergence application (100=total damage to plant; 0=no damage to plant)” value is 100. Besides, the “Control of AMAPA after post-emergence application (100=total damage to plant; 0=no damage to plant)” value in assay [4] came out at 100. Also, the “Control of DIGSA after post-emergence application (100=total damage to plant; 0=no damage to plant)” value in assay [5] is reported as 100. Further, the “Control of SETFA after post-emergence application (100=total damage to plant; 0=no damage to plant)” value in the assay with Setaria faberi (SETFA) came to 100. Further, the “Control of EPHHL after post-emergence application (100=total damage to plant; 0=no damage to plant)” value in [6] was determined as 100.
Regarding `Cc1cc(C)nc(-c2cc[n+](CCC(=O)[O-])nc2)n1` [Compound 1.017], the pest or weed control at 500 g/ha worked out at 100% in [1]; 100% in the assay on Eleusine indica (ELEIN); 50% in assay [2]; 70% in [3]; 60% with Lolium perenne (LOLPE); 100% in assay [5]. Moreover, the pest or weed control at 500 g/ha with Setaria faberi (SETFA) stood at 100%; in assay [6] it was 80%.
In the case of `Nc1ccnc(-c2cc[n+](CCC(=O)O)nc2)n1` [Compound 1.016], the pest or weed control at 500 g/ha in assay [1] is 90%; in the assay with Eleusine indica (ELEIN) it was 100%; in [2], 30%; in assay [3] it was 100%; with Lolium perenne (LOLPE), 70%; in assay [5], 100%. Besides, the pest or weed control at 500 g/ha with Setaria faberi (SETFA) is 100%; in assay [6] it was 90%.
For the molecule `Cc1cnc(-c2cc[n+](CCS(=O)(=O)[O-])nc2)nc1` [Compound 1.009], the pest or weed control at 500 g/ha in [1] turned out to be 100%; in the assay on Eleusine indica (ELEIN), 100%; in assay [2], 30%; in assay [3], 100%; in the assay with Lolium perenne (LOLPE), 80%; in assay [5] it was 100%. The pest or weed control at 500 g/ha worked out at 100% in the assay on Setaria faberi (SETFA) and 70% in assay [6].
`Cc1ccc(-c2cc[n+](CCS(=O)(=O)[O-])nc2)nn1` [Compound 1.014]: the pest or weed control at 500 g/ha in [1] was determined as 100%; in the assay with Eleusine indica (ELEIN), 90%; in assay [3], 80%; in assay [4] it was 100%; with Lolium perenne (LOLPE), 90%; in assay [5], 100%. Moreover, the pest or weed control at 500 g/ha (with Setaria faberi (SETFA); in [6]) was 100% in each case.
For the molecule `COc1cc(-c2cc[n+](CCCS(=O)(=O)[O-])nc2)ncn1` [Compound 1.019], the pest or weed control at 500 g/ha in assay [1] amounted to 100%; in the assay with Eleusine indica (ELEIN), 90%; in assay [2], 60%; in assay [3], 70%; in the assay with Lolium perenne (LOLPE) it was 30%; in assay [5], 100%. In addition, the pest or weed control at 500 g/ha (with Setaria faberi (SETFA); in assay [6]) was 100% each time.

The record behind these values is patent publication US20220095618A1, “HERBICIDAL COMPOSITIONS” (SYNGENTA CROP PROTECTION AG, priority 2019, published 2022).
